# Laboratory results from PubChem BioAssay AID463229 (Broad Institute, 2010).
# Tested on: INS-1E rat beta cells, no cytokines, CellTiter-Glo ATP, 48 h
# Assay: cytokine-free beta-cell viability effect – INS-1E rat cells, ATP luminescence, cherry pick, counter-screen for beta-cell apoptosis protection project, dose response (AID 463229)
row,Compound,AC50 [µM]
1,O=S(=O)(c1ccc2nc(Nc3ccccc3)ccc2c1)N1CCCCC1,22.4
2,COc1cc(C(=O)Oc2ccccc2/C=N/NC(=O)c2ccc(C)c(Cl)c2)cc(OC)c1OC,12.6
3,CCCC(=O)NC(c1ccc(OC)c(OC)c1)c1cc(Cl)c2cccnc2c1O (stereo not drawn),7.47
4,CCCCCCCCCCCCCCCC[n+]1cccc(C(=O)N(CC)CC)c1,8.01
5,Nc1ccccc1C#CC(=O)c1ccccc1,11.9
6,Cc1ccc(C)c(S(=O)(=O)N2CCN(Cc3ccc(O)c4ncccc34)CC2)c1,5.74
7,CCN(Cc1ccccc1)C(c1ccc(C(F)(F)F)cc1)c1nnnn1C(C)(C)C (stereo not drawn),4.83
8,CCc1c(C)nc2ncnn2c1NCCc1ccc(OC)cc1,6.85
9,Cc1nc2ccccc2cc1OCc1ccc(F)cc1,6.6
10,CCN(CC)c1ccc2nc3ccccc3[n+](CC)c2c1,3.19
11,O=C(Nc1nc(-c2ccccn2)cs1)c1ccc([N+](=O)[O-])o1,6.03
12,COc1ccc(NS(=O)(=O)c2ccc(N3CCOCC3)c(N)c2)cc1,7.12
13,On1onc2c3cc(-c4ccccc4)nc3ccc21,5.23
14,Cc1ccc(S(=O)(=O)/N=C2\C=C(Nc3cccc(C(=O)O)c3)C(=O)c3ccccc32)c(C)c1,7.81
15,O=C(/C(=C/c1cccc(Cl)c1)c1nc2ccccc2[nH]1)c1ccccc1,4.36
16,Cc1ccc(NC2=C(N3CCCCC3)C(=O)c3ccccc3C2=O)cc1,1.9
17,O=C(Nc1cccnc1)C1(F)C(F)(F)C(F)(F)C(F)(F)C(F)(F)C1(F)F,3.56
18,CCN(CC)c1ccc(/C=N/NC(=S)NCc2ccccc2)c(O)c1,12.3
19,CN(c1ccccc1)c1ccc(/C=C/[N+](=O)[O-])cc1,8.01
20,C(C#CCCCCCCCCC[n+]1ccccc1)#CCCCCCCCCC[n+]1ccccc1,1.9
21,Cc1cc(C)c2nc(NNC(=O)c3ccc(S(=O)(=O)N4CCc5ccccc5C4)cc3)sc2c1,3.39
22,C#Cc1ccc([C@@H]2C=C(C(=O)N3CCN(Cc4ccccc4)CC3)O[C@H](OCCCCO)C2)cc1,2.13
23,Cc1cc(C(=O)N/N=C/c2cc(N=Nc3ccccc3)ccc2O)n[nH]1,3.23
24,Cc1ccc(NS(=O)(=O)c2cc([N+](=O)[O-])ccc2N/N=C/c2sc(N3CCOCC3)nc2-c2ccccc2)c(C)c1,11.9
25,O=C(c1cnc(N2CCN(c3ccccn3)CC2)c2ccccc12)N1CCN(c2cccc(Cl)c2)CC1,7.59
26,CC(C)c1nc(-c2ccccc2)c(-c2ccccc2)[nH]1,6.81
27,Oc1cc(-c2ccc(N3CCCCC3)nc2)cc2cccnc12,7.31

row,Compound,AC50 [µM]
1,Cc1cc(C)nc(SCc2ccc(C(=O)N/N=C/c3cccc(O)c3O)cc2)n1,8.06
2,CC1CCC/C=C/C2CC(O)CC2C(O)/C=C/C(=O)O1 (stereo not drawn),0.759
3,CCCCCCc1cc2cc(C(=O)Nc3ccccc3)c(=O)oc2cc1O,3.24
4,CC(C)(C)c1ccc(/C=C(\c2nc3ccccc3[nH]2)S(=O)(=O)c2ccccc2)cc1,7.37
5,Cc1ccc(C)c(S(=O)(=O)Nc2cc(SCC(=O)O)c(O)c3ccccc23)c1,7.19
6,Cc1ccc([N+](=O)[O-])c(OCCN2CCCCCC2)c1,7.14
7,CN1/C(=C\C(=O)C[n+]2ccc(C(=O)c3ccccc3)cc2)C(C)(C)c2ccccc21,1.26
8,COc1cc(/C=C(/C(=O)c2cccs2)c2nc3ccccc3[nH]2)ccc1O,12.9
9,COc1cc2sc(-c3ccccc3OC)c(-c3ccc(OCCN4CCCCC4)cc3)c2cc1OC,7.57
10,CCOc1cc(CNCCc2ccc(S(N)(=O)=O)cc2)ccc1OCc1ccc(Cl)cc1,7.84
11,Cc1ccc(-n2c(-c3ccccc3)c[n+]3c2CCC3)cc1,3.11
12,CCCCCc1cc(=O)oc2c(C(CCN3CCCC(C)C3)c3ccc(OC)cc3)c(OC)cc(OC)c12 (stereo not drawn),14.2
13,O=C(Nc1nc(-c2ccccn2)cs1)c1ccc(Cl)s1,4.38
14,CCOc1ccc(S(=O)(=O)N(C)c2ccc(OCC(=O)Nc3nc4ccccc4s3)cc2)cc1,7.9
15,CCN(CC)c1ccc(CNc2nc3ccccc3n2CCN2CCCCC2)cc1,7.26
16,Cc1ccc(C)c(-c2csc(NC(=O)C3=COCCO3)n2)c1,7.67
17,Clc1ccc(C[n+]2c(-c3ccccc3)cc(-c3ccccc3)cc2-c2ccccc2)cc1,2.01
18,Cc1ccc2nc(N(CCCN(C)C)C(=O)c3ccc(S(=O)(=O)N4CCc5ccccc5C4)cc3)sc2c1,6.99
19,COc1ccc([N+](=O)[O-])c(S(=O)(=O)c2ccccc2)n1,7.36
20,O=C(CC(O)(C(F)(F)F)C(F)(F)F)Nc1ccc(Cl)c(Cl)c1,2.73
21,Cc1cccc2sc(NNC(=O)c3ccc(S(=O)(=O)N4CC(C)CC(C)C4)cc3)nc12 (stereo not drawn),6.52
22,Cc1[nH]n(-c2ccccc2)c(=O)c1/C=N/NC(=O)c1cccc(F)c1,4.23
23,Cc1ccc(Cl)cc1NC1=C/C(=N\S(=O)(=O)c2cccs2)c2ccccc2C1=O,4.61
24,[O-][N+]1=c2ccc(Nc3ccccc3)cc2=NC12CCCCC2,12.5
25,Cc1ccccc1C(=O)N1CCN(c2ccc(NC(=O)c3cccnc3)cc2)CC1,11.7
26,Cc1cc(C(C)(C)C)cc(C)c1Cn1c2[n+](c3ccc(C(F)(F)F)cc31)CCCCC2,4.19
